Measured values from ChEMBL document CHEMBL1201862, “PubChem BioAssay data set” (2004).
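Assay format: 96-well plates, 48-hour exposure. GI50: concentration for 50% inhibition of growth.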 The source made the active and inactive calls. No stated cut-off is given here; in the data, active = GI50 up to about 1.1 µM and inactive = higher.

What was measured:
Assay in all cases: NCI anticancer screen, dose series, 48 h
SNB-19 = system: SNB-19
ACHN = system: ACHN
HOP-92 = system: HOP-92
UO-31 = system: UO-31
UACC-257 = system: UACC-257
786-0 = system: 786-0
A549 = system: A549
COLO 205 = system: COLO 205
U-251 = system: U-251
DU-145 = system: DU-145
SW-620 = system: SW-620
A498 = system: A498
CAKI-1 = system: CAKI-1
Malme-3M = system: Malme-3M
NCI/ADR-RES = system: NCI/ADR-RES
T47D = system: T47D
MDA-MB-435 = system: MDA-MB-435
HOP-62 = system: HOP-62
SR = system: SR
SK-MEL-2 = system: SK-MEL-2

Measured: GI50

CC(=O)Nc1ccc(S(=O)(=O)N=S(C)C)cc1
inactive: SNB-19 > 100 µM | ACHN > 100 µM | HOP-92 > 100 µM | UO-31 > 100 µM | UACC-257 > 100 µM | 786-0 > 100 µM | A549 > 100 µM | COLO 205 > 100 µM | U-251 > 100 µM | DU-145 > 100 µM | SW-620 > 100 µM | A498 > 100 µM | CAKI-1 > 100 µM | Malme-3M > 100 µM | NCI/ADR-RES > 100 µM | T47D > 100 µM | MDA-MB-435 > 100 µM | HOP-62 > 100 µM | SR > 100 µM | SK-MEL-2 > 100 µM
